Entries after “also recorded” stand apart in the source; their conditions may differ.
How the values were obtained:
STAT6 signaling = test: Reporter gene assay HEK-Blue-IL-4/IL-13; type: cell-based; conditions: HEK-Blue-IL-4/IL-13 cells, stimulant interleukin-4; FIG. 14
Method: (§1) In the present test example, THP1-Lucia NF-κB, HEK-Lucia RIG-1, HEK-Blue-IL-4/IL-13, and HEK-Blue IL-10 cell lines were purchased from InVivoGen, and evaluated for inhibitory activity on immune cell signaling, and the analysis was performed according to the manufacturer's analysis method. Specifically, the four types of cell lines were treated with each of test substances, which are the piperlongumine-based compounds 1 to 19, and then treated with each of promoter stimulants (LPS, 3p-hpRNA, interleukin-4, and interleukin-10). The response was induced according to the guidelines, and then the activity inhibitory ability was analyzed.
STAT6 is a transcription factor that plays a role in modulating the expression of various cytokines, hormones, and growth factors by signals coming from the outside. IL-4/IL-13 and STAT6 are also important modulator of Th2.

RIG1 = test: Reporter gene assay HEK-Lucia RIG-1; type: cell-based; conditions: HEK-Lucia RIG-1 cells, stimulant 3p-hpRNA; FIG. 12
Method: as §1

STAT3 signaling = test: Reporter gene assay HEK-Blue IL-10; type: cell-based; conditions: HEK-Blue IL-10 cells, stimulant interleukin-10; FIG. 13
Method: as §1

IFNγ expression = test: T cell-dependent cytokine IFNγ gene expression inhibition, splenocytes ex vivo; conditions: Balb/c mouse splenocytes, CD3 monoclonal antibody stimulation; FIG. 7
IL-2 gene expression = test: T cell-dependent cytokine IL-2 gene expression inhibition, splenocytes ex vivo; conditions: Balb/c mouse splenocytes, CD3 monoclonal antibody stimulation; control cyclosporine (CsA); FIG. 6
IL-4 gene expression = test: T cell-dependent cytokine IL-4 gene expression inhibition, splenocytes ex vivo; conditions: Balb/c mouse splenocytes, CD3 monoclonal antibody stimulation; control cyclosporine (CsA); FIG. 8
IL-17a gene expression = test: T cell-dependent cytokine IL-17a gene expression inhibition, splenocytes ex vivo; conditions: Balb/c mouse splenocytes, CD3 monoclonal antibody stimulation
NF-κB signaling pathway = test: Reporter gene assay THP1-Lucia NF-κB; type: cell-based; conditions: THP1-Lucia NF-κB cells stimulated with LPS; FIG. 11
Method: as §1

Structure (SMILES) | STAT6 activity inhibitory effect (STAT6 signaling) | RIG1 activity inhibitory effect (RIG1) | STAT3 activity inhibitory effect (STAT3 signaling) | inhibitory ability on Th1-derived IFNγ expression (IFNγ expression) | IL-2 gene expression inhibitory activity (IL-2 gene expression) | IL-4 gene expression inhibitory activity (IL-4 gene expression) | IL-17a gene expression inhibitory activity (IL-17a gene expression; control cyclosporine (CSA), FIG. 10) | IL-17a gene expression inhibitory activity, fold higher compared with Compound 3 (IL-17a gene expression; relative to Compound 3) | IL-17a gene expression inhibitory activity, fold higher compared with Compound 9 (IL-17a gene expression; relative to Compound 9) | NF-κB activity inhibitory effect (NF-κB signaling pathway)
COC(=O)c1cc(/C=C/C(=O)N2CCC=CC2=O)ccc1OC [Compound 1, (E)-methyl-2-methoxy-5-(3-oxo-3-(2-oxo-5,6-dihydropyridin-1(2H)-yl)prop-1-en-1-yl)benzoate] | very high STAT6 activity inhibitory ability | very high RIG1 activity inhibitory ability | very high STAT3 activity inhibitory ability | effectively inhibit | IL-2 gene expression inhibitory activity at a significant level equal to or greater than that of cyclosporine; also recorded: effectively inhibit | IL-4 gene expression inhibitory activity at a significant level equal to or greater than that of cyclosporine; also recorded: effectively inhibit | excellent IL-17a expression inhibitory activity compared with cyclosporine | at least 6 fold | at least 3 fold | very high NF-κB activity inhibitory ability
COC(=O)c1cc(/C=C/C(=O)N2CCC=C(Cl)C2=O)ccc1OC [Compound 3, (E)-methyl-5-(3-(3-chloro-2-oxo-5,6-dihydropyridin-1(2H)-yl)-3-oxoprop-1-en-1-yl)-2-methoxybenzoate] | very high STAT6 activity inhibitory ability | very high RIG1 activity inhibitory ability | very high STAT3 activity inhibitory ability | effectively inhibit | IL-2 gene expression inhibitory activity at a significant level equal to or greater than that of cyclosporine; also recorded: effectively inhibit | IL-4 gene expression inhibitory activity at a significant level equal to or greater than that of cyclosporine; also recorded: effectively inhibit | – | – | – | very high NF-κB activity inhibitory ability
COC(=O)c1cc(/C=C/C(=O)N2CCC=C(Br)C2=O)ccc1OC [Compound 9, (E)-methyl-5-(3-(3-bromo-2-oxo-5,6-dihydropyridin-1(2H)-yl)-3-oxoprop-1-en-1-yl)-2-methoxybenzoate] | – | very high RIG1 activity inhibitory ability | very high STAT3 activity inhibitory ability | effectively inhibit | IL-2 gene expression inhibitory activity at a significant level equal to or greater than that of cyclosporine; also recorded: effectively inhibit | IL-4 gene expression inhibitory activity at a significant level equal to or greater than that of cyclosporine; also recorded: effectively inhibit | – | – | – | very high NF-κB activity inhibitory ability
COC(=O)c1cc(/C=C/C(=O)N2CCC=C(Br)C2=O)ccc1O [Compound 10, (E)-methyl-5-(3-(3-bromo-2-oxo-5,6-dihydropyridin-1(2H)-yl)-3-oxoprop-1-en-1-yl)-2-hydroxybenzoate] | – | very high RIG1 activity inhibitory ability | very high STAT3 activity inhibitory ability | – | – | – | – | – | – | –
COC(=O)c1cc(/C=C/C(=O)N2CCC=C(Br)C2=O)ccc1OC(C)=O [Compound 11, (E)-methyl-2-acetoxy-5-(3-(3-bromo-2-oxo-5,6-dihydropyridin-1(2H)-yl)-3-oxoprop-1-en-1-yl)benzoate] | – | – | – | – | – | IL-4 gene expression inhibitory activity at a significant level equal to or greater than that of cyclosporine | – | – | – | –
COC(=O)c1cc(/C=C/C(=O)N2CCC=C(Cl)C2=O)ccc1O [Compound 12, (E)-methyl-5-(3-(3-chloro-2-oxo-5,6-dihydropyridin-1(2H)-yl)-3-oxoprop-1-en-1-yl)-2-hydroxybenzoate] | very high STAT6 activity inhibitory ability | – | very high STAT3 activity inhibitory ability | – | – | – | – | – | – | –
COC(=O)c1cc(/C=C/C(=O)N2CCC=C(Cl)C2=O)ccc1OC(C)=O [Compound 13, (E)-methyl-2-acetoxy-5-(3-(3-chloro-2-oxo-5,6-dihydropyridin-1(2H)-yl)-3-oxoprop-1-en-1-yl)benzoate] | very high STAT6 activity inhibitory ability | – | very high STAT3 activity inhibitory ability | – | – | – | – | – | – | –
O=C(/C=C/c1cccc([N+](=O)[O-])c1)N1CCC=C(Cl)C1=O [Compound 16, (E)-3-chloro-1-(3-(3-nitrophenyl)acryloyl)-5,6-dihydropyridin-2(1H)-one] | very high STAT6 activity inhibitory ability | – | very high STAT3 activity inhibitory ability | – | – | – | – | – | – | –
